“Also recorded” adds a separate entry of the source. Where two headings read alike, the source gives them in different places.
What was measured:
[1] = test system: AN3CA cells; experiment: CellTiter-Glo Luminescent Cell Viability Assay, AN3CA; format: cell-based; settings: Homo sapiens, AN3-CA, read-out: EC50 AN3CA
[2] = target: T1, Akt1 (Homo sapiens, UniProt P31749); experiment: HTRF KinEASE assay, IC50 against Akt1
Excerpt: (§1) The homogeneous time‐resolved fluorescence (HTRF®) KinEASE™ assay by Cisbio was used to determine the half‐maximal inhibitory concentration (IC50) values of the synthesised compounds against Akt1, Akt2 and Akt3 (Table 1).[26]
(§2) The HTRF® KinEASE™ assay (Cisbio) was used to determine the IC 50 values of the synthesised
(§3) al. (Akt2 and Akt3).1,5 The three wild-type Akt isoforms used were acquired from ProQinase.

[3] = test system: KU-19-19 cells; experiment: CellTiter-Glo Luminescent Cell Viability Assay, KU-19-19; format: cell-based; settings: Homo sapiens, bladder cancer cell line, Akt1 E17K/E49K, mean ± SD, n=3
Procedure: The potential in vitro antiproliferative activity of the synthesised target compounds was investigated against a number of cancer cell lines by the CellTiter‐Glo® Luminescent Cell Viability Assay (from Promega Corporation, USA, catalogue number: G7570). The half‐maximal effective concentrations (EC50) of these compounds were determined against the AN3‐CA, BT‐474, KU‐19‐19, MCF‐7, T‐47D and ZR‐75‐1 cell lines originating from various tissues, i. e., breast, endometrium and bladder (Table S1). […]
The CellTiter-Glo® Luminescent Cell Viability Assay from Promega was used for the cellular assays, performed as explained by Weisner et al.7,8 Information on the cancer cell lines are given in Table S1, the control compounds used in Figure S3 and the results in Table S2.
Table S1. The cell lines used for the cellular assays, including what cancer type they are predominantly found in, and where the cell lines were acquired form.
Cell line Cancer type Acquired from AN3CA Endometrium ATCC (provided by Prof. Jan G. Hengstler at Leibniz-Institut für Arbeitsforschung Dortmund)
KU-19-19 Bladder Deutsche Sammlung von Mikroorganismen und Zellkulturen […]
BT-474 CLS Cell Lines Service (provided by Prof. Jan G. Hengstler at […] Leibniz-Institut für Arbeitsforschung Dortmund)

[4] = target: T2, Akt2 (Homo sapiens, UniProt P31751); experiment: HTRF KinEASE assay, IC50 against Akt2; format: biochemical; settings: wild-type Akt2; mean ± SD, n=3
T2 construct: purchased ProQinase
T2 sequence (P31751 whole entry): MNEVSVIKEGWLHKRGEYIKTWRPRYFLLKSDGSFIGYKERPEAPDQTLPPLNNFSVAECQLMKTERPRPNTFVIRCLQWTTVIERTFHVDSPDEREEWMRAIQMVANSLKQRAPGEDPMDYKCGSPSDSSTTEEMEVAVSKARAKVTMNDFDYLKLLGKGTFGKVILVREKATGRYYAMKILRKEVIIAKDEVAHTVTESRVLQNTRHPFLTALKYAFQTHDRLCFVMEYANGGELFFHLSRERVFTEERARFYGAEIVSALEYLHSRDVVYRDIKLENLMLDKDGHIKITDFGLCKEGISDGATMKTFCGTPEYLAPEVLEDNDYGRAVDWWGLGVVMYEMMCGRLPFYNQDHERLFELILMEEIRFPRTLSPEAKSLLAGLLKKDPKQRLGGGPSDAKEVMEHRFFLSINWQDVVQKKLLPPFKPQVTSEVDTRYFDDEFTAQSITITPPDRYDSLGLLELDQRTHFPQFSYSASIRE
Excerpt: as §1, §2, §3

[5] = target: T3, wild-type Akt1 (Homo sapiens, UniProt P31749); experiment: LC-MS identification of covalent binders after co-incubation with Akt1; format: binding; settings: co-incubation with Akt1, Figure S1
T3 construct: made in house
T3 sequence (P31749 whole entry): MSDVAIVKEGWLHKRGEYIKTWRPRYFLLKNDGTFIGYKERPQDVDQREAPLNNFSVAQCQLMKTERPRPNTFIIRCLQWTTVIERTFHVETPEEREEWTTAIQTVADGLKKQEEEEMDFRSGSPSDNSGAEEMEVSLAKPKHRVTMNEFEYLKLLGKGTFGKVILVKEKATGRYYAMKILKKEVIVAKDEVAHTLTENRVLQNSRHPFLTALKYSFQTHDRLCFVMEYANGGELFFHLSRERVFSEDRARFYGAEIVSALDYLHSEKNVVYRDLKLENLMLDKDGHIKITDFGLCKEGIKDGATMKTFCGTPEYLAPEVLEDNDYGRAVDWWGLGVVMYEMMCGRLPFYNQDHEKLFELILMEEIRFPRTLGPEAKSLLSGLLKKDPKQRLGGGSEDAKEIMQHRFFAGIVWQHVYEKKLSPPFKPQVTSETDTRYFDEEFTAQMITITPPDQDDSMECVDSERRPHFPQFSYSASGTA
Excerpt: 2. Evaluation results … 4
4. Molecular Modelling … 57
indicated covalent binding.

[6] = target: Akt3 (Homo sapiens, UniProt Q9Y243); experiment: HTRF KinEASE assay, IC50 against Akt3
Sequence of Akt3 (Q9Y243 whole entry): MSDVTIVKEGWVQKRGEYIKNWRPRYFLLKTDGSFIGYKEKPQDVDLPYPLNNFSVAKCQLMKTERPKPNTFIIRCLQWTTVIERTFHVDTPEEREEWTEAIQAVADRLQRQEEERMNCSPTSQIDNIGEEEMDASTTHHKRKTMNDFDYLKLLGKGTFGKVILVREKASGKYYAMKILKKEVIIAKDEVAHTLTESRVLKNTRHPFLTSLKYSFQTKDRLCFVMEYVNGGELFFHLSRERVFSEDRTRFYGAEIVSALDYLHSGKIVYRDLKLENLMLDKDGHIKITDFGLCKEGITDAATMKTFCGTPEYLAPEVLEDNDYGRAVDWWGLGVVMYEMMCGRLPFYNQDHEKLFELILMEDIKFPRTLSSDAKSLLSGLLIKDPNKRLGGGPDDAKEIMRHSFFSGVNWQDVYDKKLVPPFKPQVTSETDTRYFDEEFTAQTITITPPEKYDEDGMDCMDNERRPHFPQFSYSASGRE
Excerpt: as §1, §2, §3

[7] = test system: ZR-75-1 cells; experiment: CellTiter-Glo Luminescent Cell Viability Assay, ZR-75-1; format: cell-based; settings: Homo sapiens
[8] = test system: MCF-7 cells; experiment: CellTiter-Glo Luminescent Cell Viability Assay, MCF-7; format: cell-based; settings: Homo sapiens
[9] = test system: T47D cells; experiment: CellTiter-Glo Luminescent Cell Viability Assay, T47D; format: cell-based; settings: Homo sapiens, breast cancer cell line, mean ± SD, n=3
[10] = test system: BT-474 cells; experiment: CellTiter-Glo Luminescent Cell Viability Assay, BT-474; format: cell-based; settings: Homo sapiens
[11] = target: T1, Akt1; experiment: Kinetic analysis with HTRF KinEASE (time-dependent IC50), kinetic parameters of inactivation; format: biochemical; design: purchased ProQinase; settings: mean ± SD, n=3
Excerpt: The kinetic parameters of inactivation, namely the inhibition constant (K I) and the rate constant of enzyme inactivation (k inact), are therefore preferentially used to describe irreversible inhibitors.[28] K I is defined as the concentration of inhibitor required for half of the maximum potential rate of covalent bond formation, while k inact is defined as the maximum potential rate of covalent bond formation.[29] The ratio of k inact over K I, k inact/K I, accounts for both the potency of the inhibitor (K I) and the maximum potential rate of covalent bond formation (k inact) and thus represents the second‐order rate constant describing the efficiency of covalent complex formation.[29] Using a protocol published by Krippendorff et al., K I and k inact can be directly estimated from time‐dependent IC50 determinations by kinetic analysis with HTRF® KinEASE™.[28]
Using a protocol published by Krippendorff et al., KI, kinact and kinact/KI could be directly
estimated from time-dependent IC50 determinations by kinetic analysis with HTRF® KinEASE™,

[12] = endometrium cancer cell line, mean ± SD, n=3
[13] = IC50 Akt1, wild-type Akt1, mean ± SD, n=3
[14] = ZR-75-1, breast cancer cell line, mean ± SD, n=3, read-out: EC50 ZR‐75‐1
[15] = MCF7, breast cancer cell line, mean ± SD, n=3, read-out: EC50 MCF‐7
[16] = BT-474, breast cancer cell line, mean ± SD, n=3, read-out: EC50 BT‐474

T1 sequence (P31749 whole entry): as the sequence (P31749 whole entry) above

Structure (SMILES)	EC50 [1, 12] [µM]	IC50 [2, 13] [µM]	EC50 [3] [µM]	IC50 [4] [µM]	covalent binding to Akt1 (mass increase by LC-MS) [5]	IC50 [6] [µM]	EC50 [7, 14] [µM]	EC50 [8, 15] [µM]	EC50 [9] [µM]	EC50 [10, 16] [µM]	melting point [°C]	other results
C=CC(=O)Nc1ccccc1-c1cn(C2CCN(Cc3ccc(-c4nc5ccccn5c4-c4ccccc4)cc3)CC2)nn1 [Compound 4, N ‐[2‐(1‐{1‐[4‐(3‐Phenylimidazo[1,2‐a]pyridin‐2‐yl)benzyl]piperidin‐4‐yl}‐1H‐1,2,3‐triazol‐4‐yl)phenyl]acrylamide]	12.3 ± 3.48	0.925 ± 0.277	29.4 ± 9.59	> 20	partial covalent binders; also recorded: partial labelling	> 20	1.75 ± 0.428	8.55 ± 1.25	15.2 ± 3.25	15.4 ± 6.13	–	–
C=CC(=O)Nc1ccc2[nH]c(=O)n(C3CCN(Cc4ccc(-c5nc6cc[nH]c(=O)c6cc5-c5ccccc5)cc4)CC3)c2c1 [Compound 2, borussertib, reference compound]	–	–	7.82 ± 3.27	–	–	–	–	–	–	–	–	EC50 ([8]; MCF7, read-out: EC50 MCF‐7): 0.277 ± 0.09 µM; EC50 ([10]; BT-474, read-out: EC50 BT‐474): 0.373 ± 0.054 µM
C=CC(=O)Nc1cccc(-c2cn(C3CCN(Cc4ccc(-c5nc6ccc(C)cn6c5-c5ccccc5)cc4)CC3)nn2)c1 [Compound 10, N ‐[3‐(1‐{1‐[4‐(6‐Methyl‐3‐phenylimidazo[1,2‐a]pyridin‐2‐yl)benzyl]piperidin‐4‐yl}‐1H‐1,2,3‐triazol‐4‐yl)phenyl]acrylamide]	5.61 ± 2.85	4.63 ± 0.244	17.3 ± 7.97	> 20	partial covalent binders	> 20	3.32 ± 3.11	6.73 ± 3.48	9.18 ± 4.72	22.8 ± 3	217 to 219	–
C=CC(=O)Nc1ccc(-c2cn(C3CCN(Cc4ccc(-c5nc6ccccn6c5-c5ccccc5C)cc4)CC3)nn2)cc1 [Compound 8, N ‐{4‐[1‐(1‐{4‐[3‐(o‐Tolyl)imidazo[1,2‐a]pyridin‐2‐yl]benzyl}piperidin‐4‐yl)‐1H‐1,2,3‐triazol‐4‐yl]phenyl}acrylamide]	5.87 ± 0.403	> 20	7.63 ± 0.636	> 20	–	> 20	5.32 ± 0.426	4.3 ± 1.18	4.52 ± 1.59	7.39 ± 2.34	169 to 170	–
NC1(C(=O)N[C@@H](CCO)c2ccc(Cl)cc2)CCN(c2ncnc3[nH]ccc23)CC1 [Capivasertib, reference compound]	–	–	3.06 ± 2.33	–	–	–	–	2.65 ± 0.555	–	1.6 ± 0.45	–	–
C=CC(=O)Nc1ccc(-c2cn(C3CCN(Cc4ccc(-c5nc6ccccn6c5-c5ccccc5)cc4)CC3)nn2)cc1 [Compound 5, N ‐[4‐(1‐{1‐[4‐(3‐Phenylimidazo[1,2‐a]pyridin‐2‐yl)benzyl]piperidin‐4‐yl}‐1H‐1,2,3‐triazol‐4‐yl)phenyl]acrylamide]	5.44 ± 1.56	2.88 ± 1.73	9.83 ± 1.6	> 20	no indication of covalent binding	> 20	3.54 ± 0.44	3.39 ± 0.348	3.79 ± 1.94	6.99 ± 2.37	–	–
C=CC(=O)Nc1cccc(-c2cn(C3CCN(Cc4ccc(-c5nc6ccccn6c5-c5ccccc5C)cc4)CC3)nn2)c1 [Compound 7, N ‐{3‐[1‐(1‐{4‐[3‐(o‐Tolyl)imidazo[1,2‐a]pyridin‐2‐yl]benzyl}piperidin‐4‐yl)‐1H‐1,2,3‐triazol‐4‐yl]phenyl}acrylamide]	5.71 ± 0.706	> 20	7.69 ± 0.664	> 20	–	> 20	4.19 ± 1.11	4.38 ± 1.59	4.86 ± 0.627	9.91 ± 4.14	124 to 126	–
CC(C)NC[C@@H](C(=O)N1CCN(c2ncnc3c2[C@H](C)C[C@H]3O)CC1)c1ccc(Cl)cc1 [Ipatasertib, reference compound]	–	–	4.23 ± 3.39	–	–	–	–	–	0.447 ± 0.002	–	–	EC50 [1]: 0.925 ± 0.457 µM; EC50 ([7]; ZR-75-1, read-out: EC50 ZR‐75‐1): 0.219 ± 0.083 µM; EC50 ([8]; MCF7, read-out: EC50 MCF‐7): 5.04 ± 1.83 µM; EC50 ([10]; BT-474, read-out: EC50 BT‐474): 2.37 ± 0.745 µM
C=CC(=O)Nc1cccc(-c2cn(C3CCN(Cc4ccc(-c5nc6ccccn6c5-c5cccc(C)c5)cc4)CC3)nn2)c1 [Compound 9, N ‐{3‐[1‐(1‐{4‐[3‐(m‐Tolyl)imidazo[1,2‐a]pyridin‐2‐yl]benzyl}piperidin‐4‐yl)‐1H‐1,2,3‐triazol‐4‐yl]phenyl}acrylamide]	5.13 ± 1.28	> 20	9.45 ± 1.04	> 20	–	> 20	4.2 ± 0.817	3.61 ± 0.804	4.59 ± 1.31	11.2 ± 4.73	130 to 132	IC50 Akt1 ([2]; wild-type Akt1, mean ± SD, n=3): inactive
C=CC(=O)Nc1cccc(-c2cn(C3CCN(Cc4ccc(-c5nc6cc[nH]c(=O)c6cc5-c5ccccc5)cc4)CC3)nn2)c1 [Compound 13, N ‐[3‐(1‐{1‐[4‐(5‐Oxo‐3‐phenyl‐5,6‐dihydro‐1,6‐naphthyridin‐2‐yl)benzyl]piperidin‐4‐yl}‐1H‐1,2,3‐triazol‐4‐yl)phenyl]acrylamide]	0.425 ± 0.058	0.007 ± 0.0018	5.65 ± 1.49	–	covalent binders	–	0.02 ± 0.007	0.329 ± 0.225	0.088 ± 0.031	0.469 ± 0.162	252 to 254	IC50 ([2]; IC50, Akt1, repeated in Table 2 for comparison, mean ± SD, n=3): 0.007 ± 0.0018 µM; decrease in activity against Akt1 compared to control compound 2 ([2]; IC50 ratio to borussertib (2)): less than 10 fold; Ki ([11]; inhibition constant of inactivation): 0.0105 ± 0.0008 µM; k inact [11]: 0.042 ± 0.012 min⁻¹; k inact/K I [11]: 66000 ± 15000 M⁻¹ s⁻¹
C=CC(=O)Nc1ccccc1-c1cn(C2CCN(Cc3ccc(-c4nc5ccccn5c4-c4ccccc4C)cc3)CC2)nn1 [Compound 6, N ‐{2‐[1‐(1‐{4‐[3‐(o‐Tolyl)imidazo[1,2‐a]pyridin‐2‐yl]benzyl}piperidin‐4‐yl)‐1H‐1,2,3‐triazol‐4‐yl]phenyl}acrylamide]	14.7 ± 2.35	> 20	22 ± 4.98	> 20	–	> 20	15.5 ± 1.86	18.2 ± 2.56	> 30	> 30	128 to 130	–
NC1(c2ccc(-c3nc4ccn5c(=O)[nH]nc5c4cc3-c3ccccc3)cc2)CCC1 [MK‐2206, reference compound]	–	–	5.53 ± 0.927	–	–	–	0.063 ± 0.021	–	–	1.68 ± 0.316	–	–
